“Also recorded” adds a separate entry of the source. Where two headings read alike, the source gives them in different places.

For data set [1], the target named is T1, calcium channel (Cavia porcellus, UniProt O35505).
T1 construct: Longitudinal smooth muscle segments of 2 cm length were mounted under a resting tension; from tissue; host or cells: ileal longitudinal smooth muscle segments of male albino guinea pigs
In words: Calcium channel antagonist activity: inhibition of muscarinic receptor-mediated Ca2+-dependent contraction (carbachol) of guinea pig ileal longitudinal smooth muscle. In kind it is cell-based. As to conditions: for relative potency as compared with Nifedipine: Nifedipine = reference. As for the experimental part: Male albino guinea pigs (body weight 300-450 g) were sacrificed by decapitation. The intestine was removed above the ileo-caecal junction. Longitudinal smooth muscle segments of 2 cm length were mounted under a resting tension of 300-400 mg. […] The muscles were equilibrated for 1 h with a solution change every 15 min. Two successive control contractions were elicited at 15 min. intervals with 5×10^-7 M carbachol. The isometric contractions were recorded with a force displacement transducer (FT 03C) on a GRASS* physiograph. The means of the […] contractile responses was taken as the 100% value for the tonic (slow) component of the response. The muscle was washed with Hepes saline solution and was allowed to re-equilibrate. The calcium antagonist (test compound) was added ten min before the dose-response for carbachol was determined. The drug-induced inhibition of contraction was expressed as percent of control. The ID50 values were graphically determined from the concentration-response curves, in triplicate.

The test system of data set [2] is angiotensin. Kind of data set: In-vitro angiotensin inhibitory activity. The data set is classed as biochemical. The note with it: for Percent Inhibition (angiotensin inhibitory activity): in vitro; for angiotensin inhibitory activity (in words): general pharmacological screening.
In data set [3] the test system is LTD4. Kind of data set: LTD4 antagonistic activity (general pharmacological screening).
Data set [4] is described as follows: In-vivo (P.O.) anti-ulcer stress activity. The note with it: for anti-ulcer stress Activity: P.O.; for anti-ulcer stressic activity (in words): general pharmacological screening.
Data set [5] has as its system heart. In words: Effect on heart rate.
The subject of data set [6] is heart muscle. In words: Ionotropic effect on heart muscle. As to conditions: for heart contractile force: at concentrations which exhibit Ca-blocking effect in smooth muscles; for positive ionotropic effect on the heart: in the same concentration as on smooth muscle; for activation at 0.00325 µM: same concentration as smooth muscle relaxant (Compound 11: 3.25×10^-9 M), Compound 19 in the same condition, read-out: positive ionotropic effect on heart muscle.

Data set [7] can be described thus: In-vivo (P.O.) anti-inflammatory activity. As to conditions: for anti-inflammatory Activity: P.O.
In data set [8] the test system is SHR Rat. Kind of data set: Blood pressure and heart rate in SHR Rat. In kind it is in vivo. The note with it: 0.2 mg/Kg.
Data set [9] has as its system heart. The note with it: J. Cardiovascular Pharmacology, 1987, 10 (Suppl. 1) S60-S65; cited from earlier work.
Where [10] appears, read: guinea pig ileal longitudinal smooth muscle, carbachol, 37° C., triplicate, read-out: calcium channel antagonist act., inhib. act. on contractile response to CD ID50.

T1 sequence (O35505 whole entry): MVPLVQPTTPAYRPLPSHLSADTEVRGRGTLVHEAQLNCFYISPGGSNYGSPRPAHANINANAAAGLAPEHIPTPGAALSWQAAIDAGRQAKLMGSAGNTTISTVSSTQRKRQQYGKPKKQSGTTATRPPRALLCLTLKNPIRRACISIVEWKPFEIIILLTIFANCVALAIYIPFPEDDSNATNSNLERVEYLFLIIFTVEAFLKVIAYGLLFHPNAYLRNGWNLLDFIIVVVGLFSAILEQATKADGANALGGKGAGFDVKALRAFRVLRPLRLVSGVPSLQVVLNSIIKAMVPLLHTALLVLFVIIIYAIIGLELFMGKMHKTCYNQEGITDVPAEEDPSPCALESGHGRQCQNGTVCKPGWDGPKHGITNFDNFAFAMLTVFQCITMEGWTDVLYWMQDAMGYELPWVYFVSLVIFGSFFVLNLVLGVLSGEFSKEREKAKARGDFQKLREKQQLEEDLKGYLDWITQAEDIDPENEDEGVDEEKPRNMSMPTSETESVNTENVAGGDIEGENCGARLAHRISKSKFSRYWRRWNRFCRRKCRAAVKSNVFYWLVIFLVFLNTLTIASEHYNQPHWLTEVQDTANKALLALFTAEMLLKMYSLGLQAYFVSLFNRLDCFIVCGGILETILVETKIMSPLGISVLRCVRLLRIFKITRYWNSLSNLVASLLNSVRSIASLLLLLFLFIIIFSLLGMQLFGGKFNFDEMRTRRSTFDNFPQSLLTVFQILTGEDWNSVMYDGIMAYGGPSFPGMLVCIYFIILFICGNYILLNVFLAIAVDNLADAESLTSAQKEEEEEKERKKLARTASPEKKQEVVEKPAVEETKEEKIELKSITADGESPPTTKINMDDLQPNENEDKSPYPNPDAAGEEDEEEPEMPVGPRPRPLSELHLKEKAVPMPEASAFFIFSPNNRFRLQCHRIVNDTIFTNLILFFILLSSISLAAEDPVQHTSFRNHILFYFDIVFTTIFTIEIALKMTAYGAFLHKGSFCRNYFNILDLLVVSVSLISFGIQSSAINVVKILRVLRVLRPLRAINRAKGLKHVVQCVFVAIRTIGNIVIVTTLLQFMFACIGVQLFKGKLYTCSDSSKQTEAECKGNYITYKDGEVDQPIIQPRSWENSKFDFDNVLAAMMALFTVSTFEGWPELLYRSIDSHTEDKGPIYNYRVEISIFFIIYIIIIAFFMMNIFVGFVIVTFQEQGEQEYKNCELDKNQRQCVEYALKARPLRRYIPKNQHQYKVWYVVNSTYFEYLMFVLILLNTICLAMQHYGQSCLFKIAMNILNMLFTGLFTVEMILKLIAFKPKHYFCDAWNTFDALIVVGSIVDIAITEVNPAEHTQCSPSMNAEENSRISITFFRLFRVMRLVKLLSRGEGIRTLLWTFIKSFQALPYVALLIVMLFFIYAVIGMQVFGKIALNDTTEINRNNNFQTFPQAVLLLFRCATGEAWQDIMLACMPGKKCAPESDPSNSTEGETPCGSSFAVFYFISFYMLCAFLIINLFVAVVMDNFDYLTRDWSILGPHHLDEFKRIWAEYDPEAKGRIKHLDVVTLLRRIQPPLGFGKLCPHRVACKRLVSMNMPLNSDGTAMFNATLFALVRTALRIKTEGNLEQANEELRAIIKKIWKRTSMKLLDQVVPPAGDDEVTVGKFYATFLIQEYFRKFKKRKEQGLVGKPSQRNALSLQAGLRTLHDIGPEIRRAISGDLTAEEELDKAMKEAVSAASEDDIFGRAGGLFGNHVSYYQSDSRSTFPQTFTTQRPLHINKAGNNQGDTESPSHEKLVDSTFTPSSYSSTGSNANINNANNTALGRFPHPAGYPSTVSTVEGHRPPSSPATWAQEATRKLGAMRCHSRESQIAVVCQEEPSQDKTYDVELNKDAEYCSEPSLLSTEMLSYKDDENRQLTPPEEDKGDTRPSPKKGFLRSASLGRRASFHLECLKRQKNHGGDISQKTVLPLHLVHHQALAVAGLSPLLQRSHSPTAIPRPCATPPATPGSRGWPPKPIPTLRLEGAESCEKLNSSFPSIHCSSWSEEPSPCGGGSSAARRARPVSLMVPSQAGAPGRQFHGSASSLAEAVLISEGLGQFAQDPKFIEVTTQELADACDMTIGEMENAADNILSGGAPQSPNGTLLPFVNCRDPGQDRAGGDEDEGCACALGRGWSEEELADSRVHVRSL

On to `COC(=O)C1=C(C)NC(C)=C(C(=O)OCCCCCC[S+]([O-])c2nc(C)cs2)C1c1cccc([N+](=O)[O-])c1` (centres unmarked) [Example 20, 3-[6-(4-Methylthiazol-2-yl)sulfinylhexyloxycarbonyl]-5-methoxycarbonyl-2,6-dimethyl-4-(3-nitrophenyl)-1,4-dihydropyridine], for which, in data set [1] (setting [10]), the IC50 was 15.4 nM.

Regarding `C[C@H](CS)C(=O)N1CCC[C@H]1C(=O)O` [Captopril, reference compound], in data set [2] (0.05 μg/ml), the “Percent Inhibition (angiotensin inhibitory activity)” value (shortened to “Percent Inhibition”) is listed as 69%.

In the case of `COC(=O)C1=C(C)NC(C)=C(C(=O)OCCCCCCCc2nc(C)cs2)C1c1cccc(Cl)c1` (centres unmarked) [Example 15, 3-[7-(4-Methylthiazol-2-yl)heptyloxycarbonyl]-5-methoxycarbonyl-2,6-dimethyl-4-(3-chlorophenyl)-1,4-dihydropyridine], the “LTD4 antagonistic activity (in words)” value in data set [3] is on record as “very strong”. The IC50 in data set [1] (setting [10]) is 6.25 nM. Also, the “anti-ulcer stress Activity” value in data set [4] (40 mg/kg) is reported as 63%. Also, the “anti-ulcer stressic activity (in words)” value in data set [4] was “very strong”. Moreover, the “angiotensin inhibitory activity (in words)” value in [2] is given as “very strong”. In addition, the “Percent Inhibition” value in [2] (0.1 μg/ml) worked out at 64%.

In the case of `COC(=O)C1=C(C)NC(C)=C(C(=O)OCCCCCCSc2nc(C)cs2)C1c1cccc([N+](=O)[O-])c1` (centres unmarked) [Example 18, 3-[6-(4-Methylthiazol-2-yl)thiohexyloxycarbonyl]-5-methoxycarbonyl-2,6-dimethyl-4-(3-nitrophenyl)-1,4-dihydropyridine], the IC50 in data set [1] (setting [10]) is 5.48 nM.

`COC(=O)C1=C(C)NC(C)=C(C(=O)OCCCCCCCc2nc(C)cs2)C1c1cccc(Cl)c1Cl` (centres unmarked) [Example 17, 3-[7-(4-Methylthiazol-2-yl)heptyloxycarbonyl]-5-methoxycarbonyl-2,6-dimethyl-4-(2,3-dichlorophenyl)-1,4-dihydropyridine]: the IC50 in data set [1] (setting [10]) is 48.1 nM.

With `COC(=O)C1=C(C)NC(C)=C(C(=O)OCCCCCCS(=O)(=O)c2nc(C)cs2)C1c1cccc([N+](=O)[O-])c1` (centres unmarked) [Example 19, 3-[6-(4-Methylthiazol-2-yl)sulfonylhexyloxycarbonyl]-5-methoxycarbonyl-2,6-dimethyl-4-(3-nitrophenyl)-1,4-dihydropyridine], in [1] (setting [10]), the IC50 was found to be 5.81 nM. The “relative potency as compared with Nifedipine” value in data set [1] (smooth muscle) was determined as 2.5. Moreover, the heart rate change entry in [5] is reported as “without changing the heart rate”. Further, in [6], the heart contractile force entry is recorded as “increase the heart contractile force”, the “positive ionotropic effect on the heart” value was “about 22%” and the activation at 0.00325 µM is 25%.

As to `COC(=O)C1=C(C)NC(C)=C(C(=O)OCCCCCCCc2cc(C)no2)C1c1cccc(C(F)(F)F)c1` (centres unmarked) [Example 3, 3-[7-(3-Methylisoxazol-5-yl)heptyloxycarbonyl]-5-methoxycarbonyl-2,6-dimethyl-4-(3-trifluoromethylphenyl)-1,4-dihydropyridine], the IC50 in [1] (setting [10]) came to 5.13 nM.

On to `CCCCC1C(=O)N(c2ccccc2)N(c2ccccc2)C1=O` [Phenylbutazone, reference compound], for which the “anti-inflammatory Activity” value in data set [7] (50 mg/kg) turned out to be 33%.

In the case of `CN1CCN(CC(=O)N2c3ccccc3C(=O)Nc3cccnc32)CC1` [Pirenzepine, reference compound], the “anti-ulcer stress Activity” value in [4] (50 mg/kg) was 75%.

On to `COC(=O)C1=C(C)NC(C)=C(C(=O)OCCCCCCCc2nc(C)cs2)C1c1cccc([N+](=O)[O-])c1` (centres unmarked) [Example 11, 3-[7-(4-Methylthiazol-2-yl)heptyloxycarbonyl]-5-methoxycarbonyl-2,6-dimethyl-4-(3-nitrophenyl)-1,4-dihydropyridine], for which the “relative potency as compared with Nifedipine” value in data set [1] (smooth muscle) amounted to 4.3. Also, the IC50 in [1] (smooth muscle, read-out: IC50 as calcium antagonist in smooth muscle) was 3.25 ± 0.33 nM. In data set [5], the heart rate change entry is listed as “without changing the heart rate; also recorded: no effect on the heart”. For the same molecule, in data set [8], the “heart rate change in SHR Rat” value was “without changing the heart rate”. Also, in data set [6], the heart contractile force entry is given as “increase the heart contractile force; also recorded: increases cardia contractile force”, the “positive ionotropic effect on the heart” value is reported as “about 12%” and the activation at 0.00325 µM is approximately 12%.

In the case of `COC(=O)C1=C(C)NC(C)=C(C(=O)OCCCCCCCc2nc(C)cs2)C1c1cccc(C(F)(F)F)c1` (centres unmarked) [Example 13, 3-[7-(4-Methylthiazol-2-yl)heptyloxycarbonyl]-5-methoxycarbonyl-2,6-dimethyl-4-(3-trifluoromethylphenyl)-1,4-dihydropyridine], in [7] (25 mg/kg), the “anti-inflammatory Activity” value was 43%.

As for `COC(=O)C1=C(C)NC(C)=C(C(=O)OCCCCCCn2nc(C)cc2C)C1c1cccc([N+](=O)[O-])c1` (centres unmarked) [Example 5, 3-[6-(3,5-Dimethylpyrazol-1-yl)hexyloxycarbonyl]-5-methoxycarbonyl-2,6-dimethyl-4-(3-nitrophenyl) -1,4-dihydropyridine], the “anti-inflammatory Activity” value in data set [7] (40 mg/kg) was 35%. Also, the “anti-inflammatory activity (in words)” value in data set [7] (general pharmacological screening) is given as “very strong”. Further, the IC50 in data set [1] (setting [10]) was 6.24 nM. In addition, the “Percent Inhibition” value in data set [2] (0.001 μg) is recorded as 58%; in data set [2] (0.01 μg/ml), 95%.

Take `CCOC(=O)C1=C(C)NC(C)=C(C(=O)OC)C1c1cccc(Cl)c1Cl` (centres unmarked) [Felodipine, 3-ethoxycarbonyl-5-methoxycarbonyl-4-(2,3-dichlorophenyl)-2,6-dimethyl-1,4-dihydropyridine]: the “effect on heart rate (tachycardia)” value in [9] is on record as “creates tachycardia”.

Consider `COC(=O)C1=C(C)NC(C)=C(C(=O)OCCCCCCCc2cc(C)no2)C1c1cccc([N+](=O)[O-])c1` (centres unmarked) [Example 1, 3-[7-(3-Methylisoxazol-5-yl)heptyloxycarbonyl]-5-methoxycarbonyl-2,6-dimethyl-4-(3-nitrophenyl)-1,4-dihydropyridine], for which the “LTD4 antagonistic activity (in words)” value in data set [3] was “very strong”. The IC50 in data set [1] (setting [10]) is 3.84 nM. In addition, the “anti-ulcer stress Activity” value in [4] (50 mg/kg) was found to be 63%. In data set [4], the “anti-ulcer stressic activity (in words)” value was “very strong”. Also, the “angiotensin inhibitory activity (in words)” value in [2] is “very strong”. The “Percent Inhibition” value is 60% in [2] (0.0025 μg) and 93% in data set [2] (0.01 μg/ml).

As for `C[C@]12CCC(=O)C=C1CC[C@@H]1[C@@H]2[C@@H](O)C[C@@]2(C)[C@H]1CC[C@]2(O)C(=O)CO` [Hydrocortisone, reference compound], the “anti-inflammatory Activity” value in data set [7] (25 mg/kg) turned out to be 32%.

Values taken from patent US5120750A, “Generation of 1,4-dihydropyridine derivatives” (priority 1990, dated 1992).
